Data taken from publication PMC7259601 (PLoS ONE, 2020).
Like-named read-outs stand apart in the source and are kept apart here.

Columns and labels:
PKCa (h) = biological target: T1, PKCa (h) (Homo sapiens, UniProt P17252); assay: CEREP Diversity Panel; format: biochemical
T1 construct: purchased CEREP (Eurofins Cerep)
Protocol: (§1) […]. MAO-A inhibition at 10 μM was 37%, in line with internal data.

acetylcholinesterase (h) = biological target: T2, acetylcholinesterase (h) (Homo sapiens, UniProt P22303); assay: CEREP Diversity Panel; format: biochemical
T2 construct: purchased CEREP (Eurofins Cerep)
Protocol: as §1

MAO- A (h) = biological target: T3, MAO- A (h) (Homo sapiens, UniProt P21397); assay: CEREP Diversity Panel; format: biochemical
T3 construct: purchased CEREP (Eurofins Cerep)
T3 sequence (P21397 whole entry): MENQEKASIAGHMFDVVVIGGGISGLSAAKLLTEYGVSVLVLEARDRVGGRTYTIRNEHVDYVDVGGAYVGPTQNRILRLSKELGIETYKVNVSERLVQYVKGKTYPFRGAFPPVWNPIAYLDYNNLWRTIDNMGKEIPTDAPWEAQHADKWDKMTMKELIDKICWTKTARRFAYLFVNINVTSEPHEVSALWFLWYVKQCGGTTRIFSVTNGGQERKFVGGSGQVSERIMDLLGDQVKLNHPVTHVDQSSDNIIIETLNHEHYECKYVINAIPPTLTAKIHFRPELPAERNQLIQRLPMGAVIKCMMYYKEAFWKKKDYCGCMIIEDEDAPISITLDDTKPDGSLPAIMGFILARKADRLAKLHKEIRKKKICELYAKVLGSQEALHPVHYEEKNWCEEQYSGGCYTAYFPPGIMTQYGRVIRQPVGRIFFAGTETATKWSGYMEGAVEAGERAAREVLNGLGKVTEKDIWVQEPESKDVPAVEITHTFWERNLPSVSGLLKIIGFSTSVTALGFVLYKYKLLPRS
Protocol: as §1

CENP-E (h) = biological target: T4, CENP-E (h) (Homo sapiens, UniProt Q02224); assay: CEREP Diversity Panel; format: biochemical
T4 construct: purchased CEREP (Eurofins Cerep)
T4 sequence (Q02224 whole entry): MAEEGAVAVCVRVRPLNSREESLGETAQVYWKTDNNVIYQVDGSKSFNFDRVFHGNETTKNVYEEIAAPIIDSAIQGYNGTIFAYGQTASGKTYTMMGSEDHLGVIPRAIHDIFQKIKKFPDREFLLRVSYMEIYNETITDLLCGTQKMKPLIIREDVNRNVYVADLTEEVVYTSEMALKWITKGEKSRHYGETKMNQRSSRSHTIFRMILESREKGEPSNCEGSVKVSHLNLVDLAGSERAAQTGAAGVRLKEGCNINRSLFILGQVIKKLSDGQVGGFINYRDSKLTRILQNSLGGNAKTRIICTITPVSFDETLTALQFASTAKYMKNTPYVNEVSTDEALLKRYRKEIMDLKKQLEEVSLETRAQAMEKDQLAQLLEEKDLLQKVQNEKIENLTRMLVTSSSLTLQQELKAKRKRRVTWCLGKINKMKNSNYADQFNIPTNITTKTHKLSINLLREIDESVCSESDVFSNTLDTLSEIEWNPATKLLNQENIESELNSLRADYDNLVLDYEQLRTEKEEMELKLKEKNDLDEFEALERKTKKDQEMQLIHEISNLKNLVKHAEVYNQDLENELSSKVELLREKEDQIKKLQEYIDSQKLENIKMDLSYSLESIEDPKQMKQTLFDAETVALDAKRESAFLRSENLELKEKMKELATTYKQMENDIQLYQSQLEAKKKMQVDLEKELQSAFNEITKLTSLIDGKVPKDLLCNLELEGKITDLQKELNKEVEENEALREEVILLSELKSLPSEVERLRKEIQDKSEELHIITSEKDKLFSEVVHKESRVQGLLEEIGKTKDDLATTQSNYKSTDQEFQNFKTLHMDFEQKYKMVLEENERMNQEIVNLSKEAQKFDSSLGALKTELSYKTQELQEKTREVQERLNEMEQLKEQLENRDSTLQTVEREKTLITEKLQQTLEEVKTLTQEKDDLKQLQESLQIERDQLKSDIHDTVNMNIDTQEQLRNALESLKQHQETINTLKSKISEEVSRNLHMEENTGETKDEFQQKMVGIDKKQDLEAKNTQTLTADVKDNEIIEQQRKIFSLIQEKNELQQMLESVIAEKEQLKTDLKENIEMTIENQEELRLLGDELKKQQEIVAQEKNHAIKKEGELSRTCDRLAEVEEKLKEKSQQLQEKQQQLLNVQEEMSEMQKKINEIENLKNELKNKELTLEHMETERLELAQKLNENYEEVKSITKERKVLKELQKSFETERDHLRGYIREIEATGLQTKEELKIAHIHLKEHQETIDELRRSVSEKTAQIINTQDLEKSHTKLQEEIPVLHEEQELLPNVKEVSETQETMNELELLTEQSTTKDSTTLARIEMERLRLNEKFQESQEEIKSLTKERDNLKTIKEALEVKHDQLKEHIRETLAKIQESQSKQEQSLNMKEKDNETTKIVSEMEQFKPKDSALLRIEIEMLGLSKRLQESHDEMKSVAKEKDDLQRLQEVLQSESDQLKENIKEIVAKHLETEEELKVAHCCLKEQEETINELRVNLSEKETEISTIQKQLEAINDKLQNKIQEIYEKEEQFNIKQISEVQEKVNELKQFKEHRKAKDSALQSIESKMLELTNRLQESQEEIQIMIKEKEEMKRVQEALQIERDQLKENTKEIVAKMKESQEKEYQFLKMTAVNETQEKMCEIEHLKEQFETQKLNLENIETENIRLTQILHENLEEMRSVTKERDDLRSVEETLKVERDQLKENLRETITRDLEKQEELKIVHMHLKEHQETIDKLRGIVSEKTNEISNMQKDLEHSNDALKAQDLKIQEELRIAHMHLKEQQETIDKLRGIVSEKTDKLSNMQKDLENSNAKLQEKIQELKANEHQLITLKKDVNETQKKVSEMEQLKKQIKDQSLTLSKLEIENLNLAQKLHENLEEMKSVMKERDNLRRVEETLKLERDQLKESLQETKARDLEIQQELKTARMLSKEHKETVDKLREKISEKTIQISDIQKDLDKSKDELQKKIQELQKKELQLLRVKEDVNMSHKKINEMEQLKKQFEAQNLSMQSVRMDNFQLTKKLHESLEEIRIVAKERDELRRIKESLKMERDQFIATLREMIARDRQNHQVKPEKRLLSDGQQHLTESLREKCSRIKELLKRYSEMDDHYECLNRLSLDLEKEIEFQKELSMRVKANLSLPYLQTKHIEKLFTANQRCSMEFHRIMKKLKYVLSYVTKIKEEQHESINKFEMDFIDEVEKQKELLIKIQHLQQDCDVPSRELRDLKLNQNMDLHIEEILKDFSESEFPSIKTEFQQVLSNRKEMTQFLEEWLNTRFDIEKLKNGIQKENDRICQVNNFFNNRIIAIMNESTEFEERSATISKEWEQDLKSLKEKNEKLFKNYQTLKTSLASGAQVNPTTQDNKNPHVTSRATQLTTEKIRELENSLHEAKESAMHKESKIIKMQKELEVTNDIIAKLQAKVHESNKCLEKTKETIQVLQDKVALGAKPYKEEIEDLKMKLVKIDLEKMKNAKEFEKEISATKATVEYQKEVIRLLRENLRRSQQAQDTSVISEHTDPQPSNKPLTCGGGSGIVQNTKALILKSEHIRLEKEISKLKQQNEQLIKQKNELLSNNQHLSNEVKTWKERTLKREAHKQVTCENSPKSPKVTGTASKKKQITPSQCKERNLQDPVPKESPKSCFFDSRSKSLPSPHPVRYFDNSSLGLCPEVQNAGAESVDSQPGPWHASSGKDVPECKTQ
Protocol: as §1

PDE2A1 (h) = PDE2A1 (h) (Homo sapiens, UniProt O00408); assay: CEREP Diversity Panel; format: biochemical
Sequence of PDE2A1 (h) (O00408 49-941 limits assumed): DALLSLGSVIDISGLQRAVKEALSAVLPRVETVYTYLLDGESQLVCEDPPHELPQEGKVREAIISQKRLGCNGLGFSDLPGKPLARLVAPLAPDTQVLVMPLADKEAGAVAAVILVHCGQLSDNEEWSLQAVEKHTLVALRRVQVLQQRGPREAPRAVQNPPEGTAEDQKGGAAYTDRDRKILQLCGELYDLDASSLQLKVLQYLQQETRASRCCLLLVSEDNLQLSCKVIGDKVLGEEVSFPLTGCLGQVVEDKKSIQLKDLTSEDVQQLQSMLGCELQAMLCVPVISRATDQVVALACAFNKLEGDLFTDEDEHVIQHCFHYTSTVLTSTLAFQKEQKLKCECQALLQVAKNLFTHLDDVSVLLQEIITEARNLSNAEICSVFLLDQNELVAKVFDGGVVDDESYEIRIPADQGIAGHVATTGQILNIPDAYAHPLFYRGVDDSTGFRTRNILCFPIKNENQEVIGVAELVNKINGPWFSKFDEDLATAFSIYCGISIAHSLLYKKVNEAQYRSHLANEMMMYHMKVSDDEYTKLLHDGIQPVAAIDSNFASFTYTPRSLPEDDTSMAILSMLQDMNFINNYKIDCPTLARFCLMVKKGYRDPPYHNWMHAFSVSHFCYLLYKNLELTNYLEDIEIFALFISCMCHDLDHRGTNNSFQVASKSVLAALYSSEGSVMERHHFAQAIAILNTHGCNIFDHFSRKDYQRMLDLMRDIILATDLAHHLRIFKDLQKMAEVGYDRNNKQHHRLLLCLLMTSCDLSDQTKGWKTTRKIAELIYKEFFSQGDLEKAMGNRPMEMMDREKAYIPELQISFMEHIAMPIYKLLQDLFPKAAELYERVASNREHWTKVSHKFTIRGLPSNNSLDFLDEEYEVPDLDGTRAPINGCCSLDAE
Protocol: as §1

5-lipoxygenase (h) = biological target: T5, 5-lipoxygenase (h) (Homo sapiens, UniProt P09917); assay: CEREP Diversity Panel; format: biochemical
T5 construct: purchased CEREP (Eurofins Cerep)
Protocol: as §1

tyrosine hydroxylase = biological target: T6, tyrosine hydroxylase (Rattus norvegicus, UniProt P04177); assay: CEREP Diversity Panel; format: biochemical
T6 construct: purchased CEREP (Eurofins Cerep)
Protocol: as §1

GABA transaminase = biological target: T7, GABA transaminase (Rattus norvegicus, UniProt P50554); assay: CEREP Diversity Panel; format: biochemical
T7 construct: purchased CEREP (Eurofins Cerep)
Protocol: as §1

PDE3A (h) = biological target: T8, PDE3A (h) (Homo sapiens, UniProt Q14432); assay: CEREP Diversity Panel; format: biochemical
T8 construct: purchased CEREP (Eurofins Cerep)
Protocol: as §1

platelet (PLT) levels = assay: Rat pharmacodynamics: hematology, 5 day treatment and recovery
Source text: KDM1A is involved in hematopoiesis, and it is well known that KDM1A knockdown or KDM1A inhibitors can halt hematopoiesis when administered at sufficiently high doses and during sufficient time^(39). […] Data from N = 6 rats are represented as mean ± SEM.
Male Wistar rats (N = 3 or 6 per dose level) of 10-12 weeks of age were maintained in air and temperature controlled cages with regular supply of water and food. A maximum of […] were raised. Before first administration, the animals were marked on the tail for identification. […] Animal of each treatment group were sampled for blood on days 1, 3, 5, 8, 10, 12, 15, 17 and 19. Blood samples of days 1, 3 and 5 were obtained just one hr after the compound administration. Blood samples were obtained from leg saphenous vein using recipients treated with EDTA to avoid coagulation. The last day of the study, rats were euthanized under CO2 saturated atmosphere and blood was extracted by cardiac puncture and collected in recipients containing EDTA.
Blood samples obtained from leg saphenous vein or cardiac puncture were analyzed on a Diatron hematology analyzer at SEA (Plataforma Recerca Aplicada Animal de Laboratori, Parc Científic de Barcelona).
Hematology parameters were calculated as mean ± SEM and represented as a timecourse.

[1] = system: alpha 1 (non-selective) (antagonist radioligand); assay: CEREP Diversity Panel; format: binding; design: dose or concentration left out as unconfirmed
Protocol: as §1

[2] = system: NMDA (antagonist radioligand); assay: CEREP Diversity Panel; format: binding; design: dose or concentration left out as unconfirmed
Protocol: as §1

[3] = system: kainate (agonist radioligand); assay: CEREP Diversity Panel; format: binding; design: dose or concentration left out as unconfirmed
Protocol: as §1

[4] = system: Y (non-selective) (agonist radioligand); assay: CEREP Diversity Panel; format: binding; design: dose or concentration left out as unconfirmed
Protocol: as §1

[5] = system: Ca 2+ channel (L, verapamil site) (phenylalkylamine) (antagonist radioligand); assay: CEREP Diversity Panel; format: binding; design: dose or concentration left out as unconfirmed
Protocol: as §1

[6] = system: AMPA (agonist radioligand); assay: CEREP Diversity Panel; format: binding; design: dose or concentration left out as unconfirmed
Protocol: as §1

[7] = system: KATP channel (antagonist radioligand); assay: CEREP Diversity Panel; format: binding; design: dose or concentration left out as unconfirmed
Protocol: as §1

I1 (agonist radioligand) = assay: CEREP Diversity Panel; format: binding; design: dose or concentration left out as unconfirmed
Protocol: as §1

[8] = system: P2Y (agonist radioligand); assay: CEREP Diversity Panel; format: binding; design: dose or concentration left out as unconfirmed
Protocol: as §1

[9] = system: s (non-selective) (agonist radioligand); assay: CEREP Diversity Panel; format: binding; design: dose or concentration left out as unconfirmed
Protocol: as §1

[10] = system: KV channel (antagonist radioligand); assay: CEREP Diversity Panel; format: binding; design: dose or concentration left out as unconfirmed
Protocol: as §1

[11] = system: P2X (agonist radioligand); assay: CEREP Diversity Panel; format: binding; design: dose or concentration left out as unconfirmed
Protocol: as §1

[12] = system: Ca 2+ channel (L, dihydropyridine site) (antagonist radioligand); assay: CEREP Diversity Panel; format: binding; design: dose or concentration left out as unconfirmed
Protocol: as §1

[13] = system: alpha 2 (non-selective) (antagonist radioligand); assay: CEREP Diversity Panel; format: binding; design: dose or concentration left out as unconfirmed
Protocol: as §1

[14] = system: opioid (non-selective) (antagonist radioligand); assay: CEREP Diversity Panel; format: binding; design: dose or concentration left out as unconfirmed
Protocol: as §1

[15] = system: SKCa channel (antagonist radioligand); assay: CEREP Diversity Panel; format: binding; design: dose or concentration left out as unconfirmed
Protocol: as §1

[16] = system: Cl- channel (GABA-gated) (antagonist radioligand); assay: CEREP Diversity Panel; format: binding; design: dose or concentration left out as unconfirmed
Protocol: as §1

[17] = system: GABA transporter (antagonist radioligand); assay: CEREP Diversity Panel; format: binding; design: dose or concentration left out as unconfirmed
Protocol: as §1

[18] = system: GABA (non-selective) (agonist radioligand); assay: CEREP Diversity Panel; format: binding; design: dose or concentration left out as unconfirmed
Protocol: as §1

[19] = system: PCP (antagonist radioligand); assay: CEREP Diversity Panel; format: binding; design: dose or concentration left out as unconfirmed
Protocol: as §1

[20] = system: Na+ channel (site 2) (antagonist radioligand); assay: CEREP Diversity Panel; format: binding; design: dose or concentration left out as unconfirmed
Protocol: as §1

[21] = system: 5-HT (non-selective) (agonist radioligand); assay: CEREP Diversity Panel; format: binding; design: dose or concentration left out as unconfirmed
Protocol: as §1

[22] = system: BZD (central) (agonist radioligand); assay: CEREP Diversity Panel; format: binding; design: dose or concentration left out as unconfirmed
Protocol: as §1

[23] = system: Ca 2+ channel (L, diltiazem site) (benzothiazepines) (antagonist radioligand); assay: CEREP Diversity Panel; format: binding; design: dose or concentration left out as unconfirmed
Protocol: as §1

SMILES: Nc1nnc(CN[C@@H]2C[C@H]2c2ccc(OCc3ccccc3)cc2)o1 [ORY-2001, vafidemstat]
- inhibition at 10 µM (PKCa (h)): 4%
- inhibition at 10 µM (acetylcholinesterase (h)): -4%
- inhibition at 10 µM (MAO- A (h); 10 μM, read-out: MAO-A inhibition): 37%
- inhibition at 10 µM (MAO- A (h); at 10 µM, read-out: % inhibition): 37%
- inhibition at 10 µM (CENP-E (h)): 3%
- inhibition at 10 µM (PDE2A1 (h)): -2%
- inhibition at 10 µM (5-lipoxygenase (h)): 3%
- inhibition at 10 µM (tyrosine hydroxylase): -12%
- inhibition at 10 µM (GABA transaminase): 8%
- inhibition at 10 µM (PDE3A (h)): 1%
- dose limiting toxicity in 5 day MTD studies (platelet (PLT) levels; hematopoietic impact): reversible and dose dependent impact on platelets
- maximum PLT rebound (platelet (PLT) levels; rats, 5 day treatment, 14 day recuperation): ~12 days
- EC50 of PLT reduction (platelet (PLT) levels; rats, p.o. gavage, 5 day treatment): ~ 0.5 mg/kg
- % inhibition [1]: 0%
- % inhibition [2]: 6%
- % inhibition [3]: 2%
- % inhibition [4]: -28%
- % inhibition [5]: 5%
- % inhibition [6]: -2%
- % inhibition [7]: 3%
- % inhibition (I1 (agonist radioligand)): 26%
- % inhibition [8]: 5%
- % inhibition [9]: 9%
- % inhibition [10]: -4%
- % inhibition [11]: 3%
- % inhibition [12]: -1%
- % inhibition [13]: 3%
- % inhibition [14]: -2%
- % inhibition [15]: -11%
- % inhibition [16]: 31%
- % inhibition [17]: -3%
- % inhibition [18]: 6%
- % inhibition [19]: 1%
- % inhibition [20]: 12%
- % inhibition [21]: 5%
- % inhibition [22]: -21%
- % inhibition [23]: 0%
